Laboratory results: PubChem BioAssay (NCI)
Values joined by “and” are separate entries in the source; they are usually repeats but may differ in a detail not shown here. Equal entries are not always repeated.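 Five compound concentrations were applied to cells in 96-well plates for 48 hours; endpoints were derived by simple linear interpolation of the resulting dose-response curve. At the GI50, growth is halved. TGI denotes the concentration required for complete inhibition of growth.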

Legend:
Assay in all cases: NCI anticancer screen, dose series, 48 h
K-562 leukemia = system: K-562 leukemia
OVCAR-4 ovarian = system: OVCAR-4 ovarian
IGROV1 ovarian = system: IGROV1 ovarian
786-0 renal = system: 786-0 renal
CCRF-CEM leukemia = system: CCRF-CEM leukemia
EKVX NSCLC = system: EKVX NSCLC
MOLT-4 leukemia = system: MOLT-4 leukemia
HT29 colon = system: HT29 colon
NCI/ADR-RES ovarian = system: NCI/ADR-RES ovarian
SR leukemia = system: SR leukemia

SMILES	TGI (K-562 leukemia)	TGI (OVCAR-4 ovarian)	TGI (IGROV1 ovarian)	TGI (786-0 renal) [µM]	TGI (CCRF-CEM leukemia)	TGI (EKVX NSCLC)	TGI (MOLT-4 leukemia) [µM]	TGI (HT29 colon)	TGI (NCI/ADR-RES ovarian)	GI50 (OVCAR-4 ovarian)	GI50 (IGROV1 ovarian) [µM]	GI50 (786-0 renal)	GI50 (CCRF-CEM leukemia)	GI50 (EKVX NSCLC)	TGI (SR leukemia) [µM]	GI50 (K-562 leukemia) [µM]	GI50 (NCI/ADR-RES ovarian) [µM]	GI50 (HT29 colon) [µM]	GI50 (MOLT-4 leukemia) [µM]	GI50 (SR leukemia) [µM]
C[C@]12CCC(=O)C=C1CC[C@@H]1C2CC[C@]2(C)Nc3c(cnn3-c3ccccc3)CC12 (stereo partly drawn)	> 100 µM	> 100 µM	> 100 µM	> 100	> 100 µM	> 100 µM	> 100	> 100 µM	–	–	–	–	–	–	–	–	–	–	–	–
O=C(O)C1OC1(c1cccc(Cl)c1)c1ccccc1Cl (stereo not drawn)	87.6 µM	> 100 µM	> 100 µM	> 100	53.3 µM	68.4 µM	82.4	64.7 µM	47.3 µM	–	–	–	–	–	–	–	–	–	–	–
O=c1c2ccccc2c(=O)n2n1CC=CC2	> 100 µM	> 100 µM	> 100 µM	> 100	> 100 µM	> 100 µM	> 100	> 100 µM	–	–	–	–	–	–	–	–	–	–	–	–
CCOC1=C2C(=O)OC(=O)C2C2CCCCC2=C1 (stereo not drawn)	> 100 µM	> 100 µM	> 100 µM	> 100	> 100 µM	> 100 µM	> 100	> 100 µM	–	–	–	–	–	–	–	–	–	–	–	–
C#CC1(O)C(COP(=O)(O)OC(COCCCCCCCCCCCCCCCCCC)COP(=O)(O)OCC2OC(n3cc(F)c(=O)[nH]c3=O)CC2O)OC(n2ccc(N)nc2=O)C1O (stereo not drawn)	> 100 µM and 16.7 µM	31.4 µM and 23.4 µM	2.59 µM and 4.59 µM	> 100	15.3 µM and > 70.6 µM	> 35.2 µM and 71.4 µM	> 100	> 100 µM and 41.5 µM	8.28 µM and 30.5 µM	3.05 µM and 1.5 µM	0.135	0.547 µM	0.115 µM and 0.965 µM	1.42 µM and 5.06 µM	–	–	–	–	–	–
Cc1oc2c(C)c3oc(=O)cc(C)c3cc2c1CN1C(=O)C2OCCOCCOCCOCCOCCO[C@H]2C1=O (stereo partly drawn)	> 100 µM	> 100 µM	> 100 µM	> 100	> 100 µM	> 100 µM	> 100	> 100 µM	–	–	–	–	–	–	> 100	–	–	–	–	–
O=C(CC(=O)C1=CNc2ccccc2S1)C(=O)Nc1ccc(Cl)cc1	> 50 µM	> 50 µM	> 50 µM	> 50	> 50 µM	> 50 µM	> 50	> 50 µM	–	–	–	–	–	–	–	–	–	–	–	–
COC1OC(CBr)C(OC(=O)c2ccccc2)C(O)C1Br (stereo not drawn)	> 100 µM	> 100 µM	> 10 µM	> 100	> 100 µM	–	> 100	> 100 µM	–	–	–	–	–	–	> 100	–	–	–	–	–
O=C(Cn1c(=O)c(-c2ccccc2)nc2ccccc21)Nc1ccc(F)cc1	> 100 µM	> 100 µM	> 100 µM	> 100	> 100 µM	> 100 µM	–	> 100 µM	> 100 µM	47.3 µM	89.6	75.2 µM	6.46 µM	87.1 µM	–	35.8	> 100	> 100	–	–
COc1cc(NC(C)CCCN)c2ncccc2c1 (stereo not drawn)	> 100 µM	> 100 µM	> 100 µM	> 100	> 100 µM	> 100 µM	> 100	> 95.4 µM	> 100 µM	–	–	43.8 µM and > 88.2 µM	–	–	–	–	–	–	–	–
CN1CCN(CCOc2ccc(-c3cnc4c(-c5ccc(C(F)(F)F)cc5)cnn4c3)cc2)CC1	–	2.48 µM	3.06 µM	3.16	–	2.97 µM	–	2.38 µM	–	1.16 µM	1.55	1.67 µM	–	1.51 µM	–	–	–	0.993	–	–
O=C(O/C(=C(/N=Nc1ccccc1)c1ccccc1)c1ccccc1)c1ccccc1	> 100 µM	> 100 µM	> 100 µM	> 100	–	> 100 µM	> 100	> 100 µM	–	–	–	–	–	–	> 100	–	–	–	–	–
O=C1C2C3C=C4c5ccccc5N(c5ccccc5)C4(C2C(=O)N1c1ccc(Cl)cc1)[C@H]1C(=O)N(c2ccc(Cl)cc2)C(=O)[C@@H]31 (stereo partly drawn)	> 100 µM	> 100 µM	> 100 µM	> 100	> 100 µM	> 100 µM	> 100	> 100 µM	–	–	–	–	–	–	> 100	–	–	–	–	–
COCC(O)Cn1ccnc1[N+](=O)[O-] (stereo not drawn)	> 100 µM	–	–	> 100	> 100 µM	> 100 µM	> 100	> 100 µM	–	–	–	–	–	–	> 100	–	–	–	–	–
COc1cccc(-c2nn(-c3ccccc3)cc2-c2ccnc(NCCCNC(=O)Nc3ccc(Cl)c(Cl)c3)c2)c1	5.33 µM	18.1 µM	19.4 µM	3.97	–	17.5 µM	5.85	5.19 µM	5.39 µM	3.55 µM	4.24	1.82 µM	–	3.51 µM	4.62	2.38	2.19	2.55	1.95	1.73
CC1OC(OC2C[C@](O)(C(=O)CF)Cc3c(O)c4c(c(O)c32)C(=O)c2ccccc2C4=O)CC(N)C1O (stereo partly drawn)	1.96 µM	0.86 µM	2.4 µM	0.173	0.0133 µM	4.64 µM	0.0101	0.0905 µM	–	–	–	–	–	–	0.0708	–	–	–	–	–
CCn1cc(C(=O)N/N=C/c2ccccc2)c(=O)c2cc(F)c(N3CCNC(C)C3)c(F)c21 (stereo not drawn)	–	3.62 µM	3.2 µM	3.25	–	3.09 µM	–	–	3.46 µM	2.04 µM	1.71	1.68 µM	–	1.68 µM	–	–	1.76	–	–	–
Cc1ccc(SSc2ccc(C)cc2C(=O)O)c(C(=O)O)c1	> 100 µM	> 100 µM	–	> 100	> 100 µM	> 100 µM	> 100	> 100 µM	–	–	–	–	–	–	> 100	–	–	–	–	–
C1=CC=C2NCCCCCCCNC3=CC=CC=CC3=NCCCCCCCN=C2C=C1	> 100 µM	> 100 µM	–	> 100	> 100 µM	> 100 µM	> 100	> 100 µM	–	–	–	–	–	–	> 100	–	–	–	–	–
COc1ccc(-c2nc(/C=N/Nc3cc(C)nc4ccc(Cl)cc34)c(C)o2)cc1	–	2.9 µM	3.36 µM	2.98	–	3.29 µM	–	–	3.95 µM	1.53 µM	1.76	1.56 µM	–	1.82 µM	–	–	1.97	–	–	–
O=c1[nH]nc2ccccc2c1Cc1ccccc1	> 100 µM	> 100 µM	> 100 µM	> 100	> 100 µM	> 100 µM	> 100	> 100 µM	–	–	–	–	–	–	–	–	–	–	–	–
